# Data as given in ChEMBL document CHEMBL1221212, “Small-molecule activation of neuronal cell fate” (Nat Chem Biol, 2008).
# Activity calls are given as the source filed them. The rule behind the calls is not given here.
# Experiments:
# HCN [1] = assay: Induction of rat HCN cell differentiation assessed as induction of neuronal reporter neuroD activity by luciferase reporter gene assay; type: functional, cell-based
# HCN [2] = assay: Induction of rat HCN cell differentiation assessed as induction of neuronal reporter neuroD activity at 20 uM after 24 hrs by luciferase reporter gene assay; type: functional, cell-based
# HCN [3] = assay: Inhibition of LIF/BMP2-mediated rat HCN cell differentiation into astrocytes at 25 uM; type: functional, cell-based
# Neuronal progenitor cell [4] = assay: Induction of mouse neuronal progenitor cell differentiation at 25 uM after 4 days; type: functional, cell-based
# P19CL6 [5] = assay: Induction of mouse C57BL/6 P19CL6 cell differentiation assessed as induction of neuronal reporter gluR2 expression by luciferase reporter gene assay; type: functional, cell-based
# P19CL6 [6] = assay: Induction of C57BL/6 mouse P19CL6 cell differentiation at 50 uM after 4 days; type: functional, cell-based
# Neuronal progenitor cell [7] = assay: Induction of mouse progenitor cell differentiation into Tuj1 neurons at 20 uM after 4 days; type: functional, cell-based
# HCN [8] = assay: Inhibition of gliogenesis differentiation in rat HCN cells at 25 uM after 4 days; type: functional, cell-based
# Rattus norvegicus = species on record: Rattus norvegicus; assay: Induction of rat HCN differentiation into Tuj1 neurons at 25 uM after 4 days; type: functional
# HCN [9] = assay: Induction of rat HCN cell differentiation assessed as increase in neuroD gene expression after 3 hrs by RT-PCR analysis; type: functional, cell-based
# HCN [10] = assay: Induction of rat HCN cell differentiation assessed as increase in GluR2 gene expression after 3 hrs by RT-PCR analysis; type: functional, cell-based
# HCN [11] = assay: Induction of rat HCN cell differentiation assessed as increase in Tuj1 gene expression after 3 hrs by RT-PCR analysis; type: functional, cell-based
# HCN [12] = assay: Induction of rat HCN cell differentiation assessed as increase in NR1 gene expression after 3 hrs by RT-PCR analysis; type: functional, cell-based
# HCN [13] = assay: Induction of rat HCN cell differentiation assessed as increase in neuroD gene expression after 1 day by RT-PCR analysis; type: functional, cell-based
# HCN [14] = assay: Induction of rat HCN cell differentiation assessed as increase in GluR2 gene expression after 1 day by RT-PCR analysis; type: functional, cell-based
# HCN [15] = assay: Induction of rat HCN cell differentiation assessed as increase in Tuj1 gene expression after 1 day by RT-PCR analysis; type: functional, cell-based
# HCN [16] = assay: Induction of rat HCN cell differentiation assessed as increase in NR1 gene expression after 1 day by RT-PCR analysis; type: functional, cell-based
# HCN [17] = assay: Induction of rat HCN cell differentiation assessed as increase in neuroD gene expression after 3 days by RT-PCR analysis; type: functional, cell-based
# HCN [18] = assay: Induction of rat HCN cell differentiation assessed as increase in GluR2 gene expression after 3 days by RT-PCR analysis; type: functional, cell-based
# HCN [19] = assay: Induction of rat HCN cell differentiation assessed as increase in Tuj1 gene expression after 3 days by RT-PCR analysis; type: functional, cell-based
# HCN [20] = assay: Induction of rat HCN cell differentiation assessed as increase in NR1 gene expression after 3 days by RT-PCR analysis; type: functional, cell-based
# HCN [21] = assay: Induction of rat HCN cell differentiation assessed as increase in beta-TUB3 gene expression after 9 days by RT-PCR analysis; type: functional, cell-based
# HCN [22] = assay: Induction of rat HCN cell differentiation assessed as increase in DCX gene expression after 9 days by RT-PCR analysis; type: functional, cell-based
# HCN [23] = assay: Induction of rat HCN cell differentiation assessed as increase in MAP2AB gene expression after 9 days by RT-PCR analysis; type: functional, cell-based
# HCN [24] = assay: Induction of rat HCN cell differentiation assessed as increase in p27Kip1 gene expression after 9 days by RT-PCR analysis; type: functional, cell-based
# HCN [25] = assay: Induction of LIF/BMP2-mediated rat HCN cell differentiation into GFAP-positive astrocytes after 4 days; type: functional, cell-based
# HCN [26] = assay: Induction of LIF/BMP2-mediated rat HCN cell differentiation into Tuj1 neurons after 4 days; type: functional, cell-based
# HCN [27] = assay: Induction of L-type calcium channel/NMDA receptor-mediated Ca2+ influx in rat HCN cells; type: cell-based
# HCN [28] = assay: Induction of L-type calcium channel/NMDA receptor-mediated Ca2+ influx in rat HCN cells in presence multiple inhibitors; type: cell-based
# [29] = target: T1, Glutamate NMDA receptor (Rattus norvegicus) (UniProt P35439+Q00959+Q00960+Q00961+Q62645+Q8VHN2+Q9R1M7); assay: Induction of NMDA receptor-mediated Ca2+ influx in rat HCN cells in presence of NMDA receptor antagonist MK801; type: functional, cell-based
# HCN [30] = assay: Induction of L-type calcium channel/NMDA receptor-mediated Ca2+ influx in rat HCN cells at 5 uM by Fura-2 imaging analysis; type: cell-based
# HCN [31] = assay: Induction of L-type calcium channel/NMDA receptor-mediated Ca2+ influx in rat HCN cells at 5 uM by Fura-2 imaging analysis in presence of multiple of inhibitors; type: cell-based
# [32] = target: T1, Glutamate NMDA receptor (Rattus norvegicus); assay: Induction of NMDA receptor-mediated Ca2+ influx in rat HCN cells at 5 uM by Fura-2 imaging analysis in presence of NMDA receptor antagonist MK801; type: functional, cell-based
# HCN [33] = assay: Induction of rat HCN cell differentiation assessed as increase in neuroD gene expression at 10 uM after 3 hrs by RT-PCR analysis; type: functional, cell-based
# HCN [34] = assay: Induction of L-type calcium channel/NMDA receptor-mediated neuroD gene expression in rat HCN cells at 50 uM after 3 hrs by RT-PCR analysis in presence of multiple inhibitors; type: cell-based
# [35] = target: T1, Glutamate NMDA receptor (Rattus norvegicus); assay: Induction of NMDA receptor-mediated neuroD gene expression in rat HCN cells at 50 uM after 3 hrs by RT-PCR analysis in presence of NMDA receptor antagonist MK801; type: functional, cell-based
# [36] = target: T1, Glutamate NMDA receptor (Rattus norvegicus); assay: Induction of NMDA receptor-mediated neuroD gene expression in rat HCN cells at 50 uM after 3 hrs by RT-PCR analysis in presence of NMDA receptor antagonist nifedipine; type: functional, cell-based
# HCN [37] = assay: Induction of L-type calcium channel/NMDA receptor-mediated neuroD gene expression in rat HCN cells at 50 uM after 24 hrs by RT-PCR analysis in presence of multiple inhibitors; type: cell-based
# [38] = target: T1, Glutamate NMDA receptor (Rattus norvegicus); assay: Induction of NMDA receptor-mediated neuroD gene expression in rat HCN cells at 50 uM after 24 hrs by RT-PCR analysis in presence of NMDA receptor antagonist MK801; type: functional, cell-based
# [39] = target: T1, Glutamate NMDA receptor (Rattus norvegicus); assay: Induction of NMDA receptor-mediated neuroD gene expression in rat HCN cells at 50 uM after 24 hrs by RT-PCR analysis in presence of NMDA receptor antagonist nifedipine; type: functional, cell-based
# HCN [40] = assay: Induction of rat HCN cell differentiation assessed as induction of induction of MREx3 gene expression by luciferase reporter gene assay; type: functional, cell-based
# [41] = Induction of rat HCN cell differentiation assessed as upregulation of MEF2C expression after 2 to 4 days by protein blotting analysis; type: functional, cell-based
# [42] = Induction of rat HCN cell differentiation assessed as upregulation of MEF2A expression after 2 to 4 days by protein blotting analysis; type: functional, cell-based
# [43] = Induction of rat HCN cell differentiation assessed as upregulation of MEF2D expression after 2 to 4 days by protein blotting analysis; type: functional, cell-based
# HCN [44] = assay: Induction of neurogenesis in undifferentiated rat HCN cells assessed as MEF2A protein level at 8 to 64 uM after 9 hrs by protein blotting analysis; type: functional, cell-based
# HCN [45] = assay: Induction of neurogenesis in undifferentiated rat HCN cells assessed as MEF2C protein level at 8 to 64 uM after 9 hrs by protein blotting analysis; type: functional, cell-based
# HCN [46] = assay: Induction of neurogenesis in undifferentiated rat HCN cells assessed as MAP2AB protein level at 8 to 64 uM after 9 hrs by protein blotting analysis; type: functional, cell-based
# HCN [47] = assay: Induction of neurogenesis in undifferentiated rat HCN cells assessed as GlR2/3 protein level at 8 to 64 uM after 9 hrs by protein blotting analysis; type: functional, cell-based
# HCN [48] = assay: Induction of HDAC5 phosphorylation in rat HCN cells after 6 hrs; type: functional, cell-based
# HCN [49] = assay: Induction of HDAC5 phosphorylation in rat HCN cells after 24 hrs; type: functional, cell-based
# HCN [50] = assay: Induction of HDAC5 translocation in cytoplasm of rat HCN cells assessed as phosphorylated HDAC5 accumulation; type: functional, cell-based
# HCN [51] = assay: Effect on subcellular distribution of MEF2A protein in rat HCN cells after 5 days; type: functional, cell-based
# HCN [52] = assay: Effect on subcellular distribution of MEF2C protein in rat HCN cells after 5 days; type: functional, cell-based
# HCN [53] = assay: Effect on subcellular distribution of CREB protein in rat HCN cells after 5 days; type: functional, cell-based
# HCN [54] = assay: Induction of HDAC5 translocation in nucleus of rat HCN cells assessed as GFP-HDAC5 fusion protein accumulation at 20 uM by fluorescence assay; type: functional, cell-based
# HCN [55] = assay: Induction of CAMK-mediated MREx3 activity in rat HCN cells by luciferase reporter gene assay in presence of 2.5 uM CAMK inhibitor KN93; type: cell-based
# HCN [56] = assay: Induction of CAMK-mediated MREx3 activity in rat HCN cells by luciferase reporter gene assay in presence of 200 nM PKC inhibitor Go6976; type: cell-based
# HCN [57] = assay: Induction of CAMK-mediated HDAC5 phosphorylation in rat HCN cells by Western blot analysis in presence of 2.5 uM CAMK inhibitor KN93; type: cell-based
# HCN [58] = assay: Induction of CAMK2 phosphorylation in rat HCN cells by Western blot analysis in presence of 2.5 uM CAMK inhibitor KN93; type: cell-based
# HCN [59] = assay: Induction of CAMK-mediated MREx3 activity in rat HCN cells by luciferase reporter gene assay in presence of 2.5 uM potassium channel inhibitor KN92; type: cell-based
# [60] = Induction of rat HCN cell proliferation at 20 uM after 20 days by BrdU incorporation assay; type: functional
# HCN [61] = assay: Induction of rat HCN cell differentiation into Tuj1 neurons at 20 uM after 4 days in presence of caspase inhibitor Q-VD-Oph; type: functional, cell-based
# [62] = Cytotoxicity in rat HCN cells at 20 uM after 4 days; type: cell-based; settings: 96 h
# Neuronal progenitor cell [63] = assay: Induction of mouse progenitor cell differentiation into Map2ab-positive neurons at 20 uM after 4 days; type: functional, cell-based
# HCN [64] = assay: Induction of HDAC5 translocation in nucleus of rat HCN cells assessed as GFP-HDAC5 S258A S498A mutant fusion protein accumulation at 5 uM by fluorescence assay; type: functional, cell-based
# P19CL6 [65] = assay: Induction of mouse C57BL/6 P19CL6 cell differentiation assessed as induction of neuronal reporter neuroD activity by luciferase reporter gene assay; type: functional, cell-based
structure (smiles),measurement,setting,value
O=C(NC1CCCC1)c1cc(-c2cccs2)on1,Activity,HCN [1],Dose-dependent effect
same,Activity,HCN [2],Active
O=C(NC1CCC1)c1cc(-c2cccs2)on1,Activity,HCN [2],Active
O=C(NC1CC1)c1cc(-c2cccs2)on1,Activity,HCN [1],Dose-dependent effect
same,Activity,HCN [2],Active
same,inhibition,HCN [3],Active
same,Activity,Neuronal progenitor cell [4],Active
same,Activity,P19CL6 [5],Dose-dependent effect
same,Activity,P19CL6 [6],Active
same,Activity,Neuronal progenitor cell [7],Active
same,inhibition,HCN [8],Active
same,Activity,Rattus norvegicus,Active
same,Activity,HCN [9],Active
same,Activity,HCN [10],Active
same,Activity,HCN [11],Active
same,Activity,HCN [12],Active
same,Activity,HCN [13],Active
same,Activity,HCN [14],Active
same,Activity,HCN [15],Active
same,Activity,HCN [16],Active
same,Activity,HCN [17],Active
same,Activity,HCN [18],Active
same,Activity,HCN [19],Active
same,Activity,HCN [20],Active
same,Activity,HCN [21],Active
same,Activity,HCN [22],Active
same,Activity,HCN [23],Active
same,Activity,HCN [24],Active
same,inhibition,HCN [25],Active
same,Activity,HCN [26],Active
same,Activity,HCN [27],Active
same,Activity,HCN [28],Active
same,Activity,[29],Active
same,Activity,HCN [30],Active
same,Activity,HCN [31],Active
same,Activity,[32],Active
same,Activity,HCN [33],Active
same,Activity,HCN [34],Active
same,Activity,[35],Active
same,Activity,[36],Active
same,Activity,HCN [37],Active
same,Activity,[38],Active
same,Activity,[39],Active
same,Activity,HCN [40],Dose-dependent effect
same,Activity,[41],Active
same,Activity,[42],inactive
same,Activity,[43],Active
same,Activity,HCN [44],inactive
same,Activity,HCN [45],inactive
same,Activity,HCN [46],Active
same,Activity,HCN [47],Active
same,Activity,HCN [48],Active
same,Activity,HCN [49],Active
same,Activity,HCN [50],Active
same,Activity,HCN [51],inactive
same,Activity,HCN [52],inactive
same,Activity,HCN [53],inactive
same,Activity,HCN [54],Active
same,Activity,HCN [55],inactive
same,Activity,HCN [56],Active
same,Activity,HCN [57],inactive
same,Activity,HCN [58],inactive
same,Activity,HCN [59],Active
same,Activity,[60],40%
same,Activity,HCN [61],Active
same,Activity,[62],18%
same,Activity,Neuronal progenitor cell [63],Active
same,Activity,HCN [64],Active
C=CCNC(=O)c1cc(-c2cccs2)on1,Activity,P19CL6 [65],Dose-dependent effect
